Reference: US9187472B2 (AbbVie Inc., priority 2012, dated 2015)

Legend:
[1] = test system: PC3 cells; assay: NAMPT Cell Proliferation Assay; type: cell-based; details: Homo sapiens, PC-3, 120 h, 5 days incubation, cell viability by Cell Titer Glo
Procedure, shortened: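 Proliferation of PC3 cells treated 5 days with a 10-fold compound series (top 10 μM) was quantified by Cell Titer Glo luminescence; IC50s were fitted from percent inhibition.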

[2] = target: NAMPT (Homo sapiens, UniProt P43490); assay: TR-FRET Binding Assay of NAMPT with PRPP; details: with 200 μM PRPP and 2.5 mM ATP; 2 nM NAMPT, 2 nM probe, 16 hours equilibration
NAMPT, sequence (P43490 whole entry): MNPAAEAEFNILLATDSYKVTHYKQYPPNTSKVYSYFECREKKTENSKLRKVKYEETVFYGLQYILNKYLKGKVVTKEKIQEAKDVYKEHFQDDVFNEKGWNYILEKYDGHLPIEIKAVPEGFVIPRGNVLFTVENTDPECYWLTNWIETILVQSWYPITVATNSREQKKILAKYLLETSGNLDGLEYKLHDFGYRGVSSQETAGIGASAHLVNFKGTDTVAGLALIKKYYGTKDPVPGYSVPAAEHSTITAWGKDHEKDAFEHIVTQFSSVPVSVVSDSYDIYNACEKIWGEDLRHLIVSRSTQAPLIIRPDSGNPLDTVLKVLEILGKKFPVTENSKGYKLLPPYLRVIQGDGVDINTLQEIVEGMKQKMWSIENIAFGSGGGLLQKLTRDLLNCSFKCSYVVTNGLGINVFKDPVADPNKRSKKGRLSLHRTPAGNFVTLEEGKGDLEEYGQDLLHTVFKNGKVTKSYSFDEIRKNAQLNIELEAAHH
Procedure, shortened: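 Run in the presence of substrates (200 μM PRPP, 2.5 mM ATP) with final 2 nM NAMPT, 2 nM probe, 1 nM Tb-anti-His antibody and 2% DMSO. Mixtures equilibrated 16 h before TR-FRET measurement so test compounds could be enzymatically modified.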

[3] = target: NAMPT (human, recombinant, C-terminally His-tagged) (Homo sapiens, UniProt P43490); assay: Time-Resolved Fluorescence Resonance Energy Transfer (TR-FRET) Binding Assay of NAMPT; details: without substrates; 6.8 nM NAMPT, 200 nM probe, 3 hours equilibration
NAMPT (human, recombinant, C-terminally His-tagged), sequence (P43490 whole entry): as above
Procedure, shortened: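 Probe displacement by compound was measured with 6.8 nM NAMPT, 200 nM Oregon Green 488-conjugated nicotinamide-competitive inhibitor probe and 1 nM Tb-anti-His antibody in 50 mM HEPES pH 7.5, 100 mM NaCl, 10 mM MgCl2, 1 mM DTT, 1% glycerol, 2% DMSO (final). After 3 h at room temperature, TR-FRET was read; IC50 from four-parameter logistic fit.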

| SMILES | IC50 [1] | IC50 [2] | IC50 [3] |
| --- | --- | --- | --- |
| O=C(NCc1ccn2ccnc2c1)Nc1ccc(OC2CN(C(=O)C3COCCO3)C2)cc1 (stereo not drawn) [Example 434, 1-(4-{[1-(1,4-dioxan-2-ylcarbonyl)azetidin-3-yl]oxy}phenyl)-3-(imidazo[1,2-a]pyridin-7-ylmethyl)urea] | 5.59 nM | 0.169 nM | 102 nM |
| O=C(NCc1ccn2ccnc2c1)Nc1ccc(OC2CN(C(=O)CC3CCOCC3)C2)cc1 [Example 435, 1-(imidazo[1,2-a]pyridin-7-ylmethyl)-3-(4-{[1-(tetrahydro-2H-pyran-4-ylacetyl)azetidin-3-yl]oxy}phenyl)urea] | 20.4 nM | 0.191 nM | 163 nM |
| CC(C)(C)OC(=O)N1CC[C@@H](Oc2ccc(C(=O)NCc3ccn4ccnc4c3)cc2)C1 [Example 436, tert-butyl (3R)-3-{4-[(imidazo[1,2-a]pyridin-7-ylmethyl)carbamoyl]phenoxy}pyrrolidine-1-carboxylate] | 762 nM | 0.416 nM | 1590 nM |
| O=C(NCc1ccn2ccnc2c1)c1ccc(C2CCN(C(=O)c3ccccc3)CC2)cc1 [Example 437, 4-(1-benzoylpiperidin-4-yl)-N-(imidazo[1,2-a]pyridin-7-ylmethyl)benzamide] | 7.02 nM | 0.169 nM | 29.1 nM |
| O=C(NCc1ccn2ccnc2c1)Nc1ccc(C2=CCN(C(=O)c3ccccc3)CC2)cc1F [Example 438, 1-[4-(1-benzoyl-1,2,3,6-tetrahydropyridin-4-yl)-2-fluorophenyl]-3-(imidazo[1,2-a]pyridin-7-ylmethyl)urea] | 42.5 nM | 0.427 nM | 145 nM |
| O=C(NCc1ccn2ccnc2c1)Nc1ccc(C2=CCN(C(=O)CC3CCOCC3)CC2)cc1F [Example 439, 1-{2-fluoro-4-[1-(tetrahydro-2H-pyran-4-ylacetyl)-1,2,3,6-tetrahydropyridin-4-yl]phenyl}-3-(imidazo[1,2-a]pyridin-7-ylmethyl)urea] | 37.5 nM | 0.641 nM | 453 nM |
| O=C(NCc1ccn2ccnc2c1)c1ccc(C2CCN(C(=O)C3CCC(F)(F)CC3)CC2)cc1 [Example 441, 4-{1-[(4,4-difluorocyclohexyl)carbonyl]piperidin-4-yl}-N-(imidazo[1,2-a]pyridin-7-ylmethyl)benzamide] | 7.2 nM | 0.324 nM | 338 nM |
| CC(C)C(=O)N1CCC(Oc2ccc(NC(=O)NCc3ccn4ccnc4c3)cc2)CC1 [Example 442, 1-(imidazo[1,2-a]pyridin-7-ylmethyl)-3-(4-{[1-(2-methylpropanoyl)piperidin-4-yl]oxy}phenyl)urea] | 70.7 nM | 0.2 nM | 301 nM |
| CC[C@H](C)C(=O)N1CCC(Oc2ccc(NC(=O)NCc3ccn4ccnc4c3)cc2)CC1 [Example 443, 1-(imidazo[1,2-a]pyridin-7-ylmethyl)-3-[4-({1-[(2S)-2-methylbutanoyl]piperidin-4-yl}oxy)phenyl]urea] | 8.96 nM | 0.274 nM | 138 nM |
| O=C(NCc1ccn2ccnc2c1)Nc1ccc(OC2CCN(C(=O)CC3CC3)CC2)cc1 [Example 444, 1-(4-{[1-(cyclopropylacetyl)piperidin-4-yl]oxy}phenyl)-3-(imidazo[1,2-a]pyridin-7-ylmethyl)urea] | 69.9 nM | 0.244 nM | 156 nM |
| O=C(NCc1ccn2ccnc2c1)Nc1ccc(OC2CCN(C(=O)c3ccccc3)CC2)cc1 [Example 445, 1-{4-[(1-benzoylpiperidin-4-yl)oxy]phenyl}-3-(imidazo[1,2-a]pyridin-7-ylmethyl)urea] | 22.9 nM | 0.212 nM | 110 nM |
| CC(C)OCC(=O)N1CCC(Oc2ccc(NC(=O)NCc3ccn4ccnc4c3)cc2)CC1 [Example 446, 1-(imidazo[1,2-a]pyridin-7-ylmethyl)-3-[4-({1-[(propan-2-yloxy)acetyl]piperidin-4-yl}oxy)phenyl]urea] | 61.2 nM | 0.253 nM | 388 nM |
| CC(C)(O)C(=O)N1CCC(Oc2ccc(NC(=O)NCc3ccn4ccnc4c3)cc2)CC1 [Example 447, 1-(4-{[1-(2-hydroxy-2-methylpropanoyl)piperidin-4-yl]oxy}phenyl)-3-(imidazo[1,2-a]pyridin-7-ylmethyl)urea] | 12.5 nM | 0.232 nM | 261 nM |
| O=C(NCc1ccn2ccnc2c1)Nc1ccc(OC2CCN(C(=O)[C@H]3CCCO3)CC2)cc1 [Example 448, 1-(imidazo[1,2-a]pyridin-7-ylmethyl)-3-[4-({1-[(2R)-tetrahydrofuran-2-ylcarbonyl]piperidin-4-yl}oxy)phenyl]urea] | 67.8 nM | 0.176 nM | 175 nM |
| O=C(NCc1ccn2ccnc2c1)Nc1ccc(OC2CCN(C(=O)[C@@H]3CCCO3)CC2)cc1 [Example 449, 1-(imidazo[1,2-a]pyridin-7-ylmethyl)-3-[4-({1-[(2S)-tetrahydrofuran-2-ylcarbonyl]piperidin-4-yl}oxy)phenyl]urea] | 23.6 nM | 0.169 nM | 256 nM |
| O=C(NCc1ccn2ccnc2c1)Nc1ccc(OC2CCN(C(=O)C3CCOCC3)CC2)cc1 [Example 450, 1-(imidazo[1,2-a]pyridin-7-ylmethyl)-3-(4-{[1-(tetrahydro-2H-pyran-4-ylcarbonyl)piperidin-4-yl]oxy}phenyl)urea] | 70.1 nM | 0.244 nM | 422 nM |
| O=C(NCc1ccn2ccnc2c1)Nc1ccc(OC2CCN(C(=O)CC3CCOCC3)CC2)cc1 [Example 451, 1-(imidazo[1,2-a]pyridin-7-ylmethyl)-3-(4-{[1-(tetrahydro-2H-pyran-4-ylacetyl)piperidin-4-yl]oxy}phenyl)urea] | 17.3 nM | 0.373 nM | 400 nM |
| CC(C)C(=O)N1CC(c2ccc(NC(=O)NCc3ccn4ccnc4c3)cc2)C1 [Example 452, 1-(imidazo[1,2-a]pyridin-7-ylmethyl)-3-{4-[1-(2-methylpropanoyl)azetidin-3-yl]phenyl}urea] | 59.2 nM | 0.285 nM | 293 nM |
| CC[C@H](C)C(=O)N1CC(c2ccc(NC(=O)NCc3ccn4ccnc4c3)cc2)C1 [Example 453, 1-(imidazo[1,2-a]pyridin-7-ylmethyl)-3-(4-{1-[(2S)-2-methylbutanoyl]azetidin-3-yl}phenyl)urea] | 9.21 nM | 0.258 nM | 152 nM |
| O=C(NCc1ccn2ccnc2c1)Nc1ccc(C2CN(C(=O)CC3CC3)C2)cc1 [Example 454, 1-{4-[1-(cyclopropylacetyl)azetidin-3-yl]phenyl}-3-(imidazo[1,2-a]pyridin-7-ylmethyl)urea] | 42.2 nM | 0.34 nM | 405 nM |
| O=C(NCc1ccn2ccnc2c1)Nc1ccc(C2CN(C(=O)c3ccccc3)C2)cc1 [Example 455, 1-[4-(1-benzoylazetidin-3-yl)phenyl]-3-(imidazo[1,2-a]pyridin-7-ylmethyl)urea] | 3.5 nM | 0.194 nM | 16.7 nM |
| CC(C)OCC(=O)N1CC(c2ccc(NC(=O)NCc3ccn4ccnc4c3)cc2)C1 [Example 456, 1-(imidazo[1,2-a]pyridin-7-ylmethyl)-3-(4-{1-[(propan-2-yloxy)acetyl]azetidin-3-yl}phenyl)urea] | 49.6 nM | 0.169 nM | 389 nM |
| CC(C)(O)C(=O)N1CC(c2ccc(NC(=O)NCc3ccn4ccnc4c3)cc2)C1 [Example 457, 1-{4-[1-(2-hydroxy-2-methylpropanoyl)azetidin-3-yl]phenyl}-3-(imidazo[1,2-a]pyridin-7-ylmethyl)urea] | 194 nM | 0.487 nM | 1140 nM |
| O=C(NCc1ccn2ccnc2c1)Nc1ccc(C2CN(C(=O)[C@H]3CCCO3)C2)cc1 [Example 458, 1-(imidazo[1,2-a]pyridin-7-ylmethyl)-3-(4-{1-[(2R)-tetrahydrofuran-2-ylcarbonyl]azetidin-3-yl}phenyl)urea] | 183 nM | 0.382 nM | 940 nM |
| O=C(NCc1ccn2ccnc2c1)Nc1ccc(C2CN(C(=O)[C@@H]3CCCO3)C2)cc1 [Example 459] | 77.7 nM | 0.41 nM | 381 nM |
| O=C(NCc1ccn2ccnc2c1)Nc1ccc(C2CN(C(=O)C3CCOCC3)C2)cc1 [Example 460, 1-(imidazo[1,2-a]pyridin-7-ylmethyl)-3-{4-[1-(tetrahydro-2H-pyran-4-ylcarbonyl)azetidin-3-yl]phenyl}urea] | 50.9 nM | 0.307 nM | 569 nM |
| O=C(NCc1ccn2ccnc2c1)Nc1ccc(C2CN(C(=O)CC3CCOCC3)C2)cc1 [Example 461, 1-(imidazo[1,2-a]pyridin-7-ylmethyl)-3-{4-[1-(tetrahydro-2H-pyran-4-ylacetyl)azetidin-3-yl]phenyl}urea] | 31.4 nM | 0.169 nM | 459 nM |
| O=C(CC1CCCC1)Nc1ccc(C(=O)NCc2ccc3nccn3c2)c(F)c1 [Example 462, 4-[(cyclopentylacetyl)amino]-2-fluoro-N-(imidazo[1,2-a]pyridin-6-ylmethyl)benzamide] | 7.43 nM | 0.266 nM | 59.1 nM |
